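These data come from cells grown in 96-well plates and exposed to compound for 48 hours at five concentrations. TGI marks complete inhibition of growth.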
Assays:
Experiment in all cases: inhibition of tumour cell growth, NCI panel, 48 h
[1] = tested on: 786-0 renal
[2] = tested on: A498 renal
[3] = tested on: A549 NSCLC
[4] = tested on: ACHN renal
[5] = tested on: BT-549 breast
[6] = tested on: CAKI-1 renal
[7] = tested on: CCRF-CEM leukemia
[8] = tested on: COLO 205 colon
[9] = tested on: DU-145 prostate
[10] = tested on: EKVX NSCLC
[11] = tested on: HCC-2998 colon
[12] = tested on: HCT-116 colon
[13] = tested on: HCT-15 colon
[14] = tested on: HL-60(TB) leukemia
[15] = tested on: HOP-62 NSCLC
[16] = tested on: HOP-92 NSCLC
[17] = tested on: HS 578T breast
[18] = tested on: HT29 colon
[19] = tested on: IGROV1 ovarian
[20] = tested on: KM12 colon
[21] = tested on: LOX IMVI melanoma
[22] = tested on: M14 melanoma
[23] = tested on: MALME-3M melanoma
[24] = tested on: MCF7 breast
[25] = tested on: MDA-MB-231 breast
[26] = tested on: MDA-MB-435
[27] = tested on: MDA-N
[28] = tested on: MOLT-4 leukemia
[29] = tested on: NCI-H226 lung
[30] = tested on: NCI-H23 lung
[31] = tested on: NCI-H460 lung
[32] = tested on: NCI-H522 lung
[33] = tested on: NCI/ADR-RES ovarian
[34] = tested on: OVCAR-3 ovarian
[35] = tested on: OVCAR-4 ovarian
[36] = tested on: OVCAR-5 ovarian
[37] = tested on: OVCAR-8 ovarian
[38] = tested on: PC-3 prostate
[39] = tested on: RPMI-8226 leukemia
[40] = tested on: SF-268 CNS
[41] = tested on: SF-295 CNS
[42] = tested on: SF-539 CNS
[43] = tested on: SK-MEL-2 melanoma
[44] = tested on: SK-MEL-28 melanoma
[45] = tested on: SK-MEL-5 melanoma
[46] = tested on: SK-OV-3 ovarian
[47] = tested on: SN12C renal
[48] = tested on: SNB-19 CNS
[49] = tested on: SNB-75 CNS
[50] = tested on: SR leukemia
[51] = tested on: SW-620 colon
[52] = tested on: T-47D breast
[53] = tested on: TK-10 renal
[54] = tested on: U251 CNS
[55] = tested on: UACC-257 melanoma
[56] = tested on: UACC-62 melanoma
[57] = tested on: UO-31 renal

O=c1[nH]c(Nc2ccc(Br)c(C(F)(F)F)c2)nc2nc[nH]c12
TGI [1]: > 100 µM | TGI [2]: > 100 µM | TGI [3]: > 100 µM | TGI [4]: > 100 µM | TGI [5]: > 100 µM | TGI [6]: > 100 µM | TGI [7]: > 100 µM | TGI [8]: 41 µM | TGI [9]: > 100 µM | TGI [10]: > 100 µM | TGI [11]: 40.5 µM | TGI [12]: > 100 µM | TGI [13]: > 100 µM | TGI [14]: > 100 µM | TGI [15]: > 100 µM | TGI [16]: > 100 µM | TGI [17]: 45.6 µM | TGI [18]: > 100 µM | TGI [19]: > 100 µM | TGI [20]: > 100 µM | TGI [21]: > 100 µM | TGI [22]: > 100 µM | TGI [23]: > 100 µM | TGI [24]: > 100 µM | TGI [25]: > 100 µM | TGI [26]: > 100 µM | TGI [27]: > 100 µM | TGI [28]: 88.5 µM | TGI [29]: > 100 µM | TGI [30]: > 100 µM | TGI [31]: > 100 µM | TGI [32]: 63.5 µM | TGI [33]: > 100 µM | TGI [34]: 87 µM | TGI [35]: > 100 µM | TGI [36]: > 100 µM | TGI [37]: > 100 µM | TGI [38]: > 100 µM | TGI [39]: > 100 µM | TGI [40]: > 100 µM | TGI [41]: > 100 µM | TGI [42]: > 100 µM | TGI [43]: 44.4 µM | TGI [44]: > 100 µM | TGI [45]: 71.8 µM | TGI [46]: > 100 µM | TGI [47]: > 100 µM | TGI [48]: > 100 µM | TGI [49]: > 100 µM | TGI [50]: > 100 µM | TGI [51]: > 100 µM | TGI [52]: > 100 µM | TGI [53]: > 100 µM | TGI [54]: > 100 µM | TGI [55]: > 100 µM | TGI [56]: 61.6 µM | TGI [57]: 77.4 µM
